Measured values published in patent US7101878B1 (Agouron Pharmaceuticals, Inc., priority 1998, dated 2006).
Read-outs that look alike come from different tables or passages of the source. Where a SMILES comes first, the peptide text is derived from it. [ ]: non-standard residue; d: D form. The star is where a group is joined. dPhe(4-Cl) = N[C@H](Cc1ccc(Cl)cc1)C(=O)O; d2Nal = N[C@H](Cc1ccc2ccccc2c1)C(=O)O; Lys(iPr) = CC(C)NCCCC[C@H](N)C(=O)O; d3Pal = N[C@H](Cc1cccnc1)C(=O)O; Nicotinoyl = O=C(c1cccnc1)*

Legend:
bovine GnRH receptor = biological target: T1, bovine GnRH receptor (Bos taurus, UniProt P32236); assay: Radioligand binding, 125I-GnRH-A, bovine pituitary membranes
T1 construct: membranes were prepared from bovine pituitary; from tissue; host or cells: bovine pituitary
T1 sequence (P32236 1-328): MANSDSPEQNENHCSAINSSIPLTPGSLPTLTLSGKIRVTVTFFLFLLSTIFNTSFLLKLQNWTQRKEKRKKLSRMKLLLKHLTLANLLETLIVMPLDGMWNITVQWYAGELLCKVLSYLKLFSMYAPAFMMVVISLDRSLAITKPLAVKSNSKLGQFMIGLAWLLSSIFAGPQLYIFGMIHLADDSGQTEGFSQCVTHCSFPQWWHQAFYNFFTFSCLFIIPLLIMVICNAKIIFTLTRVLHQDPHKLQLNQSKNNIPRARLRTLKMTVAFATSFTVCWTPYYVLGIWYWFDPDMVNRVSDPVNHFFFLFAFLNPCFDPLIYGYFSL
Summary of the method: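 Bound label captured on 0.1% polyethyleneimine-treated GF/C filters, washed three times with PBS, counted. IC50 derived; identical set-up for every species.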

rat GnRH receptor = biological target: T2, rat GnRH receptor (Rattus norvegicus, UniProt P30969); assay: Microphysiometry, extracellular acidification rate, GGH3 cells; assay type: cell-based
T2 sequence (P30969 1-327): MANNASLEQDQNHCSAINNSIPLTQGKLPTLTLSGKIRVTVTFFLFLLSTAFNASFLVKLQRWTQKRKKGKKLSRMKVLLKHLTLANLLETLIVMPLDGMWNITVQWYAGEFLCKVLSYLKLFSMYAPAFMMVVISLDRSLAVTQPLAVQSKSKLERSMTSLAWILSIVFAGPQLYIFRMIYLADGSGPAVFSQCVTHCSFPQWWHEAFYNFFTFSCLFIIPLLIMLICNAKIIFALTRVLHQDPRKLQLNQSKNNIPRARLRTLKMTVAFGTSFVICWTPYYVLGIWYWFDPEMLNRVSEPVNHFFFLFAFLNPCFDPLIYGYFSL
Description: These cells have been extensively characterized previously (Kaiser et al., 1997). These cells were grown in low glucose Dulbecco's modified Eagle's medium (DMEM) containing: 100U/mL penicillin/streptomycin, 0.6 g/L G418 and 10% beat-inactivated fetal bovine serum
This cell line was provided by Dr. Stuart Sealfon, Mount Sinai Medical School New York, N.Y. These cells were grown in DMEM supplemented with 0.2 g/L G418 100 U/ml penicillin/streptomycin and 10% FBS. Both GGH3 and hGnRH-R/293 cells were utilized for both for both total inositol phosphate measurement and for microphysiometry assessment of compound efficacy.
The Cytosensor®Microphysiometer (Molecular Devices, Sunnyvale, Calif.) is a real-time, noninvasive, nonradioactive semiconductor-based system for monitoring the cellular responses to various stimuli. It is based on a pH-sensitive silicon sensor, the light-addressable potentiometric sensor which forms part of a microvolume flow chamber in which cultured cells are immobilized (Pitchford et al., 1995; Parce et al., 1989; Owicki, et al. 1994).
GGH3 cells were seeded in low-buffered minimal essential media (MEM, Sigma) containing 25 mM NaCl and 0.1% BSA at a density of 500,000 cells/capsule onto the polycarbonate membrane (3 μm porosity) of cell capsule cups (Molecular Devices, Sunnyvale, Calif.). Capsule cups were transferred to sensor chambers where cells were held in close apposition to a silicon sensor within a sensor chamber, which measures small changes in pH in the microvolume of the sensor chamber. Low-buffered medium was pumped continuously across the cells at a rate of approximately 100 μl/min from one of two fluid reservoirs. A selection valve determined which reservoir from which fluid was perifused onto the cells.
The Cytosensor®Microphysiometer generates a voltage signal, which is a linear function of pH, every second. In order to measure acidification rates, flow to the sensor chamber containing the cells was periodically interrupted, allowing for excreted acidic metabolites to build up in the extracellular fluid of the cells. In these experiments, cells were maintained at 37° C. on a two minute flow cycle with cells being perfused with media for 80 seconds followed by 40 seconds in which the flow of media was stopped. During this 40 second interval, acidification rates were measured for a 30 sec interval. In this fashion, a single acidification rate was calculated every two min. The Cytosensor®Microphysiometer device contains eight such sensor units, allowing for eight simultaneous experiments to be performed. Each unit was individually programmed utilizing a computer linked to the system.
GGH3 cells were initially equilibrated in the low-buffered MEM media for a period of 30-60 min in which basal acidification rates (measured as μV/sec), in the absence of any stimuli, were monitored. When the basal rate of acidification changed by less than ten percent over a period of twenty minutes, experiments were initiated. Time course experiments were performed to determine the optimal time for agonist exposure prior to acidification rate measurement and the duration of exposure needed to obtain peak acidification responses to various agonists. From these time course experiments, it was determined that cells should be exposed to GnRH peptide agonists at least one minute prior to collection of acidification rate data. Peak acidification rates usually occurred in the first two-minute exposure cycle. In order to capture the peak response to GnRH, cells were exposed to the agonist for a total of four minutes. […] All compounds were tested in a final concentration of 1% DMSO in low-buffered MEM media described above.

5-HT7 = 5-HT7 (Homo sapiens, UniProt P34969); assay: Selectivity: 5-HT7
5-HT7, sequence (P34969 whole entry, species assumed): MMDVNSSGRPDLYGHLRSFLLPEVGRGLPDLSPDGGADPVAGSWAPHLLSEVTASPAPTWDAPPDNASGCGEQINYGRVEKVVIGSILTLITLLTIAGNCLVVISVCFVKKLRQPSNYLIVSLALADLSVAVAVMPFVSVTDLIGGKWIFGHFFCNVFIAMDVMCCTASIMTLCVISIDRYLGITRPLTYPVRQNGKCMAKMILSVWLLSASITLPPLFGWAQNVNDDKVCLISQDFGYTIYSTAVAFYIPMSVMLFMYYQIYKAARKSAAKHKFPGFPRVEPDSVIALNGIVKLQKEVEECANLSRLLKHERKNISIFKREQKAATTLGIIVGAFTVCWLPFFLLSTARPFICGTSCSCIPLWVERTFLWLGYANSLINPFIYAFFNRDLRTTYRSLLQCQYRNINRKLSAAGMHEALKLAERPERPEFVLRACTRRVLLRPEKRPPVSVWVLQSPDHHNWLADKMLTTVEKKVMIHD

[1] = rat, readout (PI or pH) not stated
[2] = means ± SE of at least three experiments performed in duplicate, read-out: Bovine IC50

Row | Kb (rat GnRH receptor; [1]) [nM] | Compound | Ki (5-HT7) [nM] | IC50 (bovine GnRH receptor; [2]) [nM] | further results
1 | 0.9 | COc1cc(OC)c(NC(=O)c2ccc(Cc3cc(C(C)(C)C)ccc3C)o2)c(OC)c1 [Compound 200] |  |  | 
2 | 9 | COc1cc(OC)c(NC(=O)c2ccc(Cc3cc4c(cc3C)C(C)(C)CCC4(C)C)o2)c(OC)c1C#N [Compound 177] |  |  | 
3 | 11 | COc1cc(OC)c(NC(=O)c2ccc(Cc3cc4c(cc3C)CCCC4(C)C)o2)c(OC)c1 [Compound 183] |  |  | 

More lines, now with the values behind:

Row | Compound | Kb (rat GnRH receptor; [1]) [nM] | Ki (5-HT7) [nM] | IC50 (bovine GnRH receptor; [2]) [nM] | further results
4 | COc1cccc(OC)c1NC(=O)c1ccc(Cc2cc3c(cc2C)C(C)(C)CCC3(C)C)o1 [Compound 20] | 9 | > 4400 |  | IC50 (bovine GnRH receptor; read-out: bGnRH IC50): 130 nM
5 | COc1cc(OC)c(NC(=O)c2ccc(Cc3cc4c(cc3C)C(C)(C)CCC4(C)C)o2)c(OC)c1 [Compound 134] |  | > 4400 |  | Kb (rat GnRH receptor; rat, pH (microphysiometry)): 13 nM
6 | Cc1cnc(CNC(=O)c2ccc(Cc3cc4c(cc3C)C(C)(C)CCC4(C)C)o2)cn1 [Compound 13] |  | > 4400 | 530 ± 100 | 
7 | COc1cc(OC)c(NC(=O)c2ccc(Cc3cc4c(cc3OC)C(C)(C)CCC4(C)C)o2)c(OC)c1 [Compound 169] | 17 |  |  | 
8 | Cc1cc2c(cc1Cc1ccc(C(=O)NCC3CCCC(CNc4nccc(NCC5CCCO5)n4)C3)o1)C(C)(C)CCC2(C)C (centres unmarked) [Compound 11] |  | 1800 | 320 ± 10 | 
9 | Cc1cc2c(cc1Cc1ccc(C(=O)NC[C@H]3CC[C@H](C(=O)O)CC3)o1)C(C)(C)CCC2(C)C [Compound 12] |  | > 4500 | 10400 ± 3000 | 
10 | Cc1cc2c(cc1Cc1ccc(C(=O)NCc3cccc(CNc4nccc(NCC5CCCO5)n4)c3)o1)C(C)(C)CCC2(C)C (centres unmarked) [Compound 70] | 8 |  |  | IC50 (bovine GnRH receptor; read-out: bGnRH IC50): 43 nM; GnRH functional (rat) (rat GnRH receptor; [1]): Antag- onist (rat)
11 | CC(=O)N[C@H](Cc1ccc2ccccc2c1)C(=O)N[C@H](Cc1ccc(Cl)cc1)C(=O)N[C@H](Cc1cccnc1)C(=O)N[C@@H](CO)C(=O)N[C@@H](CCCCNC(=O)c1cccnc1)C(=O)N[C@H](CCCCNC(=O)c1cccnc1)C(=O)N[C@@H](CC(C)C)C(=O)N[C@@H](CCCCNC(C)C)C(=O)N1CCC[C@H]1C(=O)N[C@H](C)C(N)=O [Antide, reference compound] (Ac-[d2Nal][dPhe(4-Cl)][d3Pal]SK(Nicotinoyl)[dK](Nicotinoyl)L[Lys(iPr)]P[dA]-NH2) |  |  | 0.15 ± 0.02 | 
12 | Cc1cc2c(cc1Cc1ccc(C(=O)NC[C@H]3CC[C@H](CNC(=N)N)CC3)o1)C(C)(C)CCC2(C)C [Compound 10] |  | 1270 | 1500 ± 480 | 
13 | Cc1cc2c(cc1Cc1ccc(C(=O)NCc3nc4ccccc4[nH]3)o1)C(C)(C)CCC2(C)C [Compound 48] |  | > 4400 |  | IC50 (bovine GnRH receptor; read-out: bGnRH IC50): 490 nM
14 | Cc1cc2c(cc1Cc1ccc(C(=O)NCc3cccc(CNc4ccnc(NC[C@@H]5CCCO5)n4)c3)o1)C(C)(C)CCC2(C)C [Compound 136] |  | 2400 |  | effect on GnRH dose-response curves, extracellular acidification rate (rat GnRH receptor; GGH3 cells, one experiment): rightward shift in the dose-response curves to GnRH without decreasing the maximum response to GnRH; Kb (rat GnRH receptor; rat, pH (microphysiometry)): 8 nM
